Reference: US6194465A, “Benzamide therapeutics for the treatment of inflammatory bowel disease” (priority 1999, dated 2001)
“Also recorded” adds a separate entry of the source. Like-named read-outs stand apart in the source and are kept apart here.

Experiments:
bcl-2 = experiment: TNF-α induced reduction in bcl-2 (ELISA); assay type: cell-based; details: Compound A 100 μM (printed 100 EM); TNF-α 0.3 or 3.0
Experimental: Cytokine mediated apoptosis or programmed cell death is believed to be involved in a number of diseases including IBD. Reductions in bcl-2 are a major signal in initiation of the apoptotic cascade (see Jourd'heuil et al., J. Clin Gastroenterol. 25(Suppl):S61-S72 (1997)). The purpose of this study is to investigate the effects of Compound A on bcl-2 protein levels in a cellular model of cytokine mediated apoptosis.
SK-N-MC cells (American Type Culture Collection, Rockville, Md.) were plated at 500,000 cells/plate and treated with retinoic acid ("RA") (5 μM) for 5 days. Following RA treatment, the cells were incubated with Compound A (100 μM) for 1 hour. Cells were then treated with increasing concentrations of TNF-α (0, 0.3 and 3 ng/mL) for 6 h. The cells were harvested and lysed and bcl-2 was measured in the lysate using an ELISA assay (Boehringer Manheim). Quantification of bcl-2 was based on a standard curve and results are expressed as units/mL of bcl-2 in the sample. Results represent mean ±SE for 3 separate cultures.

[1] = tested on: TNBS-induced colonic tissue damage; experiment: TNBS model, dosing after TNBS treatment (morphology, MPO, wet weight); assay type: in vivo, rats
Experimental: As a follow-on set of experiments we investigated the effects of multiple doses of Compound A administered after TNBS treatment.
Experimental conditions were similar to those described above except that rats were given either Compound A (30 mg/kg PO) or vehicle, administered 4, 8 and 24 hours after TNBS treatment for at total of 3 doses.
In another series of experiments to investigate the duration of action of Compound A was designed to advance previous observations and determine whether a single dose of 90 mg/kg po Compound A given either 4, 8, or 24 hrs after the TNBS enema would reduce the colonic damage.
Experimental conditions were similar to those described above except that rats were given a single large dose of Compound A (90 mg/kg PO) or vehicle either 4, 8 or 24 hours after TNBS treatment.

DSS-induced colitis = experiment: Mouse Dextran Sulfate (DSS) IBD model; assay type: in vivo, Swiss-Webster mice
Experimental: Another model used for screening candidate IBD-treating compounds is the Dextran Sulfate ("DSS") model. Similar to the TNBS model, DSS induced colitis is widely used as a screening tool for IBD therapeutics. When administered orally, DSS induces IBD-like symptoms in Swiss-Webster mice. This model is used to determine the effectiveness of compounds of this invention when such compounds are administered orally (p.o.)
Individually housed 30-40 g male Swiss-Webster mice (B & K Universal, Fremont, Calif.) received 3% DSS (Sigma Chemicals, St. Louis, Mo.) in their drinking water for 7 days. All animals received food and water ad libitum.
Two groups of mice were dosed orally with either Compound A in a dosing vehicle (1% methyl cellulose, dose range of 10 mg/kg to 30 mg/kg) or dosing vehicle alone (control).
Clinical signs of colitis were assessed by a disease activity index ("DAI") consisting of changes in stool characteristics, fecal occult bleeding and body weight loss. The DAI is very similar to the Crohn's Disease Activity Index used in clinical trials to evaluate new agents to prevent/treat IBD. The DAI data were analyzed using Proc Anova in SAS with a Bonferoni post-hoc analysis, and Model 108 in WinNonlin™ (Professional Version 1.5, Scientific Consulting, Apex, NC) for the ED50 and Emax values. The wet weight and myeloperoxidase ("MPO") data (collected only on Day 7) were analyzed by Proc TTest in SAS. MPO is a marker for neutrophil infiltration.
Stool Characteristic: 0=normal, 2=loose and 4=diarrhea
Fecal Occult Blood: 0=negative, 2=positive, 4=gross bleeding
Two strips of colonic tissue/mouse
MPO activity by spectrophotometric assay

[2] = Absolute oral bioavailability (AUC oral vs IV, 20 mg/kg); assay type: in vivo, rats; details: rat, blood
Experimental: Blood concentrations were determined at 0, 0.083, 0.15, 0.5, 1, 2, 4, 8, and 24 hours post-IV dose and 0, 0.5, 1, 2, 4 and 8 hours post-oral dose. Four animals were dosed orally and four animals were dosed intravenously.
The blood samples were analyzed by HPLC. Detection was by UV at 262 nm. Responses were converted to concentrations by comparison to responses from calibration standards injected onto the column. The resulting concentrations were used to calculate the AUC.

[3] = 30 mg/kg PO at 4, 8 and 24 hours after TNBS

**Q.** Which results are given for CC(=O)Nc1ccc(C(=O)NC(C)(C)C)cc1 [Compound A, N-tert-butyl-4-acetamidobenzamide]?
**A.** bcl-2 reduction induced by TNF-α (bcl-2): prevented bcl-2 reduction; MPO activity, 3 doses after TNBS (in words) [1, 3]: decrease in MPO activity; colonic tissue damage, 3 doses after TNBS [1, 3]: significantly reduced; tissue wet weight, 3 doses after TNBS (in words) [1, 3]: reduction in tissue wet weight; inflammatory damage, single dose after TNBS ([1]; 90 mg/kg po, 4, 8 or 24 hours after TNBS): prevents inflammatory damage; also recorded: less efficacy than the 3 dose (30 mg/kg) oral regimen; MPO values (in words) (DSS-induced colitis; Day 7): the protection was not statistically significant; wet weight (in words) (DSS-induced colitis; Day 7): the protection was not statistically significant; protective effect against DSS-induced colitis (DSS-induced colitis; oral, 10 mg/kg to 30 mg/kg): showed protective effect against DSS-induced colitis; significance of protective effect by day (DSS-induced colitis; oral, 10 mg/kg to 30 mg/kg): statistically significant on days 3, 4, 5 and 7; estimated ED50 (DSS-induced colitis; oral, DSS model, WinNonlin): approximately 15 mg/kg; estimated Emax (DSS-induced colitis; oral, DSS model, WinNonlin): ~80 % protection; bioavailability ([2]; in rats, as restated, read-out: bioavailability): 50%; bioavailability ([2]; oral 20 mg/kg in 1% methyl cellulose vs IV 20 mg/kg in 75% PEG, read-out: absolute bioavailability): 52%
